This note sets out measurements from US9662327B2 (AGIOS PHARMACEUTICALS, INC, priority 2011, dated 2017).

Structures are written as SMILES. pIC50: −log10 of the molar value. Read-outs that look alike come from different tables or passages of the source.

The assay deals with IDH1 R132H (Homo sapiens (Human), UniProt O75874, R132H). The assay is described as follows: Assays for IDH1 R132H Inhibitors (NADPH/aKG, resazurin detection). The format is biochemical. The note with it: IDH1 R132H enzyme. As for the experimental part: Assays were conducted in a volume of […] assay buffer (150 mM NaCl, 10 mM MgCl2, 20 mM Tris pH 7.5, 0.03% bovine serum albumin) as follows in a standard 384-well plate: To 25 ul of substrate mix (8 uM NADPH, 2 mM aKG), 1 μl of test compound was added in DMSO. […] The reaction was incubated for 50 minutes at room temperature, then 25 μl of detection mix (30 μM resazurin, […]) was added and the mixture further incubated for 5 minutes at room temperature.
A general note: Resazurin is reduced to fluorescent resorufin, in cell work by metabolically active cells.

Setting [1] is: Table 2, read-out: IDHR132H Activity.

Sequence of IDH1 R132H (O75874 whole entry R132H): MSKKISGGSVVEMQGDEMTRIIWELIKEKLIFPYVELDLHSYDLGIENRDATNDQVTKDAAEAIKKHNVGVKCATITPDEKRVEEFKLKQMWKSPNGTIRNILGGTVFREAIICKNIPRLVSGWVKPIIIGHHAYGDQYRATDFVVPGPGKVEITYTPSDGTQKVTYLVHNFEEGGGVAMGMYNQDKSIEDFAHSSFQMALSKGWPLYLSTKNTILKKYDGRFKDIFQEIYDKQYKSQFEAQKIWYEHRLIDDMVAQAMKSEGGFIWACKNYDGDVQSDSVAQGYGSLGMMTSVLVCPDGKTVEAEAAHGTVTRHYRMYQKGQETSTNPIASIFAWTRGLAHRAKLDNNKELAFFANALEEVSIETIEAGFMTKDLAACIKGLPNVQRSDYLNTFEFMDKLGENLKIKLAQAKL

`CC1CN(c2nc(C3CC3)c3c(c2C#N)CC(C)(C)OC3)CCN1C(=O)c1ccco1` (stereo not drawn) [Compound 135, 8-cyclopropyl-6-(4-(furan-2-carbonyl)-3-methylpiperazin-1-yl)-3,3-dimethyl-3,4-dihydro-1H-pyrano[3,4-c]pyridine-5-carbonitrile]: the pIC50 under setting [1] was 5.00 to 6.00.
Same read-out and setting: to `CC(C)[C@@H]1CN(c2nc(C3CC3)c3c(c2C#N)CC(C)(C)OC3)CCN1C(=O)N(C)C` [Compound 351] belongs 5.00 to 6.00; to `COCCC(=O)N1CCN(c2nc(C3CCCCC3)c3c(c2C#N)CC(C)(C)OC3)C[C@H]1C` [Compound 312, (R)-8-cyclohexyl-6-(4-(3-methoxypropanoyl)-3-methylpiperazin-1-yl)-3,3-dimethyl-3,4-dihydro-1H-pyrano[3,4-c]pyridine-5-carbonitrile], 5.00 to 6.00; to `COc1cccc(CC(=O)N2CCN(c3nc(C(C)C)c4c(c3C#N)CC(C)(C)OC4)C[C@H]2C(C)C)c1` [Compound 233, (R)-8-isopropyl-6-(3-isopropyl-4-(2-(3-methoxyphenyl)acetyl)piperazin-1-yl)-3,3-dimethyl-3,4-dihydro-1H-pyrano[3,4-c]pyridine-5-carbonitrile], 5.00 to 6.00.
As for `CC(C)c1nc(N2CCN(C(=O)c3cccnc3)[C@H](C)C2)c(C#N)c2c1COC(C)(C)C2` [Compound 249, (R)-8-isopropyl-3,3-dimethyl-6-(3-methyl-4-nicotinoylpiperazin-1-yl)-3,4-dihydro-1H-pyrano[3,4-c]pyridine-5-carbonitrile], under setting [1], the pIC50 is 5.00 to 6.00.
Same read-out and setting: to `CC(C)[C@@H]1CN(c2nc(C3CC3)c3c(c2C#N)CC(C)(C)OC3)CCN1C(=O)CC1CC1` [Compound 382, (R)-8-cyclopropyl-6-(4-(2-cyclopropylacetyl)-3-isopropylpiperazin-1-yl)-3,3-dimethyl-3,4-dihydro-1H-pyrano[3,4-c]pyridine-5-carbonitrile] belongs greater than 6.30; to `CC(C)[C@@H]1CN(c2nc(C3CCC3)c3c(c2C#N)CC(C)(C)OC3)CCN1C(=O)c1ccoc1` [Compound 288, (R)-8-cyclobutyl-6-(4-(furan-3-carbonyl)-3-isopropylpiperazin-1-yl)-3,3-dimethyl-3,4-dihydro-1H-pyrano[3,4-c]pyridine-5-carbonitrile], greater than 6.30; to `C[C@@H]1CN(c2nc(C3CCCCC3)c3c(c2C#N)CC(C)(C)OC3)CCN1C(=O)Cc1cccs1` [Compound 153, (R)-8-cyclohexyl-3,3-dimethyl-6-(3-methyl-4-(2-(thiophen-2-yl)acetyl)piperazin-1-yl)-3,4-dihydro-1H-pyrano[3,4-c]pyridine-5-carbonitrile], 5.00 to 6.00.
Still for that read-out and setting: in the case of `CSCCC(=O)N1CCN(c2nc(C3CCCCC3)c3c(c2C#N)CCOC3)C[C@H]1C` [Compound 264, (R)-8-cyclohexyl-6-(3-methyl-4-(3-(methylthio)propanoyl)piperazin-1-yl)-3,4-dihydro-1H-pyrano[3,4-c]pyridine-5-carbonitrile] it was 5.00 to 6.00.
Take `CCCC(=O)N1CCN(c2nc(C3CCCCC3)c3c(c2C#N)CCOC3)C[C@H]1C` [Compound 379, (R)-6-(4-butyryl-3-methylpiperazin-1-yl)-8-cyclohexyl-3,4-dihydro-1H-pyrano[3,4-c]pyridine-5-carbonitrile]: under setting [1], the pIC50 was 5.00 to 6.00.
Same read-out and setting: to `CCOC(=O)C1CN(c2nc(C3CCCCC3)c3c(c2C#N)CCOC3)CCN1C(=O)CCSC` (stereo not drawn) [Compound 313, ethyl 4-(5-cyano-8-cyclohexyl-3,4-dihydro-1H-pyrano[3,4-c]pyridin-6-yl)-1-(3-(methylthio)-propanoyl)piperazine-2-carboxylate] belongs 5.00 to 6.00; to `CC(C)[C@@H]1CN(c2nc(C3CC3)c3c(c2C#N)CC(C)(C)OC3)CCN1C(=O)Nc1ccc(C#N)cc1` [Compound 303, (R)-4-(5-cyano-8-cyclopropyl-3,3-dimethyl-3,4-dihydro-1H-pyrano[3,4-c]pyridin-6-yl)-N-(4-cyanophenyl)-2-isopropylpiperazine-1-carboxamide], 5.00 to 6.00; to `N#Cc1c(N2CCN(C(=O)c3ccco3)CC2)nc(C2CCCCC2)c2c1CCOC2` [Compound 110, 8-cyclohexyl-6-(4-(furan-2-carbonyl)piperazin-1-yl)-3,4-dihydro-1H-pyrano[3,4-c]pyridine-5-carbonitrile], 5.00 to 6.00.
Turning to `C[C@@H]1CN(c2nc(C3CC3)c3c(c2C#N)CC(C)(C)OC3)CCN1C(=O)c1ccoc1` [Compound 164], the pIC50 under setting [1] is 6.00 to 6.30.
On to `CC(C)[C@@H]1CN(c2nc(C3CC3)c3c(c2C#N)CC(C)(C)OC3)CCN1S(=O)(=O)c1cccs1` [Compound 284, (R)-8-cyclopropyl-6-(3-isopropyl-4-(thiophen-2-ylsulfonyl)piperazin-1-yl)-3,3-dimethyl-3,4-dihydro-1H-pyrano[3,4-c]pyridine-5-carbonitrile], for which the pIC50 under setting [1] is 5.00 to 6.00.
The same measure, in the same setting: to `CCOC(=O)[C@H]1CN(c2nc(C(C)C)c3c(c2C#N)CC(C)(C)OC3)CCN1C(=O)c1ccoc1` [Compound 410] belongs 6.00 to 6.30; to `CC(C)c1nc(N2CCN(C(=O)c3c[nH]c4ccccc34)CC2)c(C#N)c2c1COCC2` [Compound 104, 6-(4-(1H-indole-3-carbonyl)piperazin-1-yl)-8-isopropyl-3,4-dihydro-1H-pyrano[3,4-c]pyridine-5-carbonitrile], 5.00 to 6.00; to `CC[C@@H]1CN(c2nc(C3CC3)c3c(c2C#N)CC(C)(C)OC3)CCN1C(=O)CCOC` [Compound 297, (R)-8-cyclopropyl-6-(3-ethyl-4-(3-methoxypropanoyl)piperazin-1-yl)-3,3-dimethyl-3,4-dihydro-1H-pyrano[3,4-c]pyridine-5-carbonitrile], greater than 6.30.
For the compound `COc1ccc(OC(=O)N2CCN(c3nc(C4CC4)c4c(c3C#N)CC(C)(C)OC4)C[C@H]2C(C)C)cc1` [Compound 337, (R)-4-methoxyphenyl 4-(5-cyano-8-cyclopropyl-3,3-dimethyl-3,4-dihydro-1H-pyrano[3,4-c]pyridine-6-yl)-2-isopropylpiperazine-1-carboxylate], the pIC50 under setting [1] is 5.00 to 6.00.
The same measure, in the same setting: to `CCCNC(=O)N1CCN(c2nc(C3CCCCC3)c3c(c2C#N)CCOC3)C[C@H]1C` [Compound 378, (R)-4-(5-cyano-8-cyclohexyl-3,4-dihydro-1H-pyrano[3,4-c]pyridin-6-yl)-2-methyl-N-propylpiperazine-1-carboxamide] belongs 5.00 to 6.00; to `C[C@@H]1CN(c2nc(C3CCCCC3)c3c(c2C#N)CCOC3)CCN1C(=O)c1csc2ccccc12` [Compound 243, (R)-6-(4-(benzo[b]thiophene-3-carbonyl)-3-methylpiperazin-1-yl)-8-cyclohexyl-3,4-dihydro-1H-pyrano[3,4-c]pyridine-5-carbonitrile], 5.00 to 6.00; to `CCC1CN(c2nc(C(C)C)c3c(c2C#N)CC(C)(C)OC3)CCN1C(=O)c1ccoc1` (stereo not drawn) [Compound 172, 6-(3-ethyl-4-(furan-3-carbonyl)piperazin-1-yl)-8-isopropyl-3,3-dimethyl-3,4-dihydro-1H-pyrano[3,4-c]pyridine-5-carbonitrile], 5.00 to 6.00.
On the same count and under the same terms, in the case of `COCCC(=O)N1CCN(c2nc(C3CC3)c3c(c2C#N)CC(C)(C)OC3)CC1COC` (stereo not drawn) [Compound 403, 8-cyclopropyl-6-(3-(methoxymethyl)-4-(3-methoxypropanoyl)piperazin-1-yl)-3,3-dimethyl-3,4-dihydro-1H-pyrano[3,4-c]pyridine-5-carbonitrile] it was 5.00 to 6.00; in that of `C[C@@H]1CN(c2nc(C3CCCCC3)c3c(c2C#N)CCOC3)CCN1C(=O)c1cscn1` [Compound 239, (R)-8-cyclohexyl-6-(3-methyl-4-(thiazole-4-carbonyl)piperazin-1-yl)-3,4-dihydro-1H-pyrano[3,4-c]pyridine-5-carbonitrile], 5.00 to 6.00.
Same read-out and setting: to `CC(C)[C@@H]1CN(c2nc(C3CC3)c3c(c2C#N)CC(C)(C)OC3)CCN1C(=O)OCCO` [Compound 368, (R)-2-hydroxyethyl 4-(5-cyano-8-cyclopropyl-3,3-dimethyl-3,4-dihydro-1H-pyrano[3,4-c]pyridin-6-yl)-2-isopropylpiperazine-1-carboxylate] belongs 6.00 to 6.30.
As for `CC(C)[C@@H]1CN(c2nc(C3CC3)c3c(c2C#N)CC(C)(C)OC3)CCN1C(=O)C[S+](C)[O-]` (stereo partly drawn) [Compound 453, 8-Cyclopropyl-6-((3R)-3-isopropyl-4-(2-(methylsulfinyl)acetyl)piperazin-1-yl)-3,3-dimethyl-3,4-dihydro-1H-pyrano[3,4-c]pyridine-5-carbonitrile], the pIC50 (Table 3, read-out: R132H IC50) was 6.00 to 6.30.
As to `CC(C)[C@@H]1CN(c2nc(C3CC3)c3c(c2C#N)CC(C)(C)OC3)CCN1C(=O)c1cnn2cccnc12` [Compound 232, (R)-8-cyclopropyl-6-(3-isopropyl-4-(pyrazolo[1,5-a]pyrimidine-3-carbonyl)piperazin-1-yl)-3,3-dimethyl-3,4-dihydro-1H-pyrano[3,4-c]pyridine-5-carbonitrile], the pIC50 under setting [1] was 5.00 to 6.00.
On to `COC(=O)C(C)CCC(=O)N1CCN(c2nc(C3CC3)c3c(c2C#N)CC(C)(C)OC3)C[C@H]1C(C)C` (stereo partly drawn) [Compound 439, Methyl 5-((R)-4-(5-cyano-8-cyclopropyl-3,3-dimethyl-3,4-dihydro-1H-pyrano[3,4-c]pyridin-6-yl)-2-isopropylpiperazin-1-yl)-2-methyl-5-oxopentanoate], for which, under “Table 3, read-out: R132H IC50”, the pIC50 is 6.00 to 6.30.
`CC1(C)Cc2c(C#N)c(N3CCN(C(=O)c4ccoc4)[C@@H](c4ccccc4)C3)nc(C3CC3)c2CO1` [Compound 275]: under setting [1], the pIC50 is 5.00 to 6.00.
Still for that read-out and setting: to `C[C@@H]1CN(c2nc(C3CCCCC3)c3c(c2C#N)CCOC3)CCN1C(=O)Cc1cccc(F)c1` [Compound 191, (R)-8-cyclohexyl-6-(4-(2-(3-fluorophenyl)acetyl)-3-methylpiperazin-1-yl)-3,4-dihydro-1H-pyrano[3,4-c]pyridine-5-carbonitrile] belongs 5.00 to 6.00.
